Experimental data as given in US20050119330A1, “Use of antiproliferative agents in the treatment and prevention of pulmonary proliferative vascular diseases” (priority 2003, published 2005).
Where “and” joins values, the source holds several entries; their conditions need not be identical. Equal values may be shown once.

What was measured:
[1] = system: pneumonectomized, monocrotaline-treated rats; assay: Acute model of pulmonary arterial hypertension (left pneumonectomy, monocrotaline on Day 7); type: in vivo, Sprague-Dawley rats; details: for right ventricular systolic pressure (RVSP): Day 35; for mean pulmonary arterial pressure (mPAP): measured Day 35; for vascular occlusion score (VOS), 0 to 2: 25 consecutive small pulmonary arteries per rat
Description: Methods: On Day, 0, thirty pathogen-free 13-week-old, male Sprague-Dawley rats (350-400 g) were intubated, anesthetized with halothane (0.5%), and then underwent left pneumonectomy via thoracotomy as described in Faul, J. L. et al. (2000) Am. J. Respir. Crit. Care Med. 162:2252-2258; and Nishimura, R. et al., (2001) Am. J. Respir. Crit. Care Med. 163:498-502. On Day 7, rats received a single subcutaneous injection in the right hind limb of the plant alkaloid monocrotaline (60 mg/kg; Sigma, St. Louis, Mo.). Rats that were not subjected to any treatment were also included in the study (“normal” or “N”).
Twenty-four rats received monocrotaline (60 mg/kg s.c.), seven days after pneumonectomy. […] Rats that were not subjected to any treatment were also included in the study (“normal” or “N”). Rats in the control group, PMV (n=6), received vehicle (V) by oral gavage every day, beginning on Day 5.
On Day 35, rats underwent pulmonary artery catheterization for measurements of mean pulmonary artery pressures and right ventricular systolic pressures. Mean arterial, mean pulmonary arterial and right ventricular systolic blood pressures (mPAP and RVSP, respectively) were measured as described by Faul et al. and Nishimura et al. After exsanguination, the right lung, right ventricle and left ventricle plus septum were collected for histology. The organs were weighed and preserved and the RV/LV&S ratios determined. Organs fixed in formalin were embedded in paraffin, cut in 3 micron sections and stained with hematoxylin and eosin, and with elastin-von Geison stain.
The severity of neointimal formation was scored on elastin-van Geison (EVG)-stained lung sections: the absence of neointimal formation equals 0; the presence of neointimal proliferation causing less than 50% luminal narrowing equals 1; luminal narrowing greater than 50% equals 2. Immunohistochemistry was performed on formalin-fixed, paraffin-embedded lung sections using antibodies to α-smooth-muscle actin (Dako, 1:30 dilution, linked to alkaline phosphatase), and CD31, a monoclonal antibody with specificity for endothelial cells lining the vascular lumen (Dako, 1:40 dilution, detected using avidin-biotin-peroxidase method). Samples of right lung were immediately placed in 2.5% paraformaldehyde and routinely processed for transmission electron microscopy. Reverse-transcription PCR was used to amplify portions of the rat endothelial nitric oxide synthase gene (eNOS, GenBank U02534) and actin B (GenBank V01217) from rat lung. Primer sequences for eNOS were: 5′-[…]-3′ (SEQ ID NO:1) and 5′-[…]-3′ (SEQ ID NO:2). Five micrograms of total lung RNA were reverse-transcribed and amplified by PCR as described in Aoki, Y., et al. (1997) Am. J. Physiol. 272:L272-284. Endothelial NOS protein (60 μg) was analyzed by Western immunoblotting as described in Zhao, G. et al. (2000) Am. J. Physiol. 279:L958-L966, using anti-eNOS primary antibody (Santa Cruz sc-8311).

[2] = system: pneumonectomized, monocrotaline-treated rats; assay: Chronic model of pulmonary arterial hypertension (monocrotaline four weeks after pneumonectomy), rescue treatment; type: in vivo
Description: Methods: Rats were treated as described in Example 1, except that monocrotaline was administered four weeks after pneumonectomy. Pulmonary hypertension developed at Week 8 and increased in severity until death at Week 13. […] Hemodynamic measurements were performed on control and treated rats in order to determine mean arterial pressures and pressures at the right ventricle.
A quantitative analysis of neointimal luminal obstruction on 25 consecutive small pulmonary arteries from each rat in Group N, PMV0w, PMV2w, PMS2w, PMS6w, and PMS13w was performed (FIGS. 10A-10D). Histological samples were prepared and stained using Elastin-van-Geison (EVG) stain, ×600. Vessels were assessed for neointimal proliferative lesions and scored: Grade 0 for no evidence of neointimal formation, Grade 1 for less than 50% luminal occlusion, Grade 2 for >50% luminal occlusion.

[3] = system: pneumonectomized, monocrotaline treated rats; details: Faul et al. 2000; Nishimura 2001; cited from earlier work
[4] = Group PMS2w: two weeks of treatment
[5] = Group PMS6w: 6 weeks of treatment
[6] = after 13 weeks of simvastatin treatment

Compound	right ventricular systolic pressure (RVSP) ([1]; Group PMS5-14: 2 mg/kg/day oral gavage Days 5-14) [mm Hg]	mean pulmonary arterial pressure (mPAP) ([1]; Group PMS5-14: simvastatin 2 mg/kg/day oral gavage Days 5-14) [mm Hg]	vascular occlusion score (VOS), 0 to 2 ([1]; Group PMS5-14)	right ventricular systolic pressure (RVSP) ([1]; Group PMS5-35: 40 mg/kg/day oral gavage Days 5-35) [mm Hg]	mean pulmonary arterial pressure (mPAP) ([1]; Group PMS5-35: simvastatin 40 mg/kg/day oral gavage Days 5-35)	vascular occlusion score (VOS), 0 to 2 ([1]; Group PMS5-35)	right ventricular systolic pressure (RVSP) ([1]; Group PMS15-35: 40 mg/kg/day oral gavage Days 15-35) [mm Hg]	mean pulmonary arterial pressure (mPAP) ([1]; Group PMS15-35: simvastatin 40 mg/kg/day oral gavage Days 15-35) [mm Hg]	vascular occlusion score (VOS), 0 to 2 ([1]; Group PMS15-35)	mean pulmonary arterial pressure (mPAP) ([2]; Group PMS2w: 2 mg/kg/day for two weeks from Week 11) [mm Hg]	right ventricular systolic pressure (RVSP) [2, 4] [mmHg]	vascular occlusion score (VOS), 0 to 2 [2, 4]	mean pulmonary arterial pressure (mPAP) ([2]; Group PMS6w: 2 mg/kg/day for 6 weeks from Week 11) [mm Hg]	right ventricular systolic pressure (RVSP) [2, 5] [mmHg]	vascular occlusion score (VOS), 0 to 2 [2, 5]	vascular occlusion score (VOS), 0 to 2 ([2]; Group PMS13w: 13 weeks of treatment)	mean pulmonary arterial pressure (mPAP) [2, 6] [mm Hg]	right ventricular systolic pressure (RVSP) [2, 6] [mmHg]	survival ([2]; simvastatin 2 mg/kg/day oral gavage from Week 11, no mortality up to Week 23, vehicle 0% survival at Week 15) [%]	development of pulmonary arterial hypertension and neointimal formation [3]
CCC(C)(C)C(=O)O[C@H]1C[C@@H](C)C=C2C=C[C@H](C)[C@H](CC[C@@H]3C[C@@H](O)CC(=O)O3)[C@H]21 [simvastatin]	66±12	44±4	0.78±0.40	37±4	27±3 mm Hg and 27 mm Hg	1.5 and 0.59±0.46	54±10	38±3	0.93±0.38	36±2	53±7	1.34	24±3	34±3	0.83	0.65	22±3	30±3	100	
CC(C)[C@]12O[C@H]1[C@@H]1O[C@]13[C@]1(O[C@H]1C[C@H]1C4=C(CC[C@@]13C)C(=O)OC4)[C@@H]2O [triptolide]																				could inhibit the development of pulmonary arterial hypertension and neointimal formation
